Reference: US20080312287A1, “Compound and Methods For the Treatment of Cancer and Malaria” (University of Washington, priority 2005, published 2008)
Where two headings read alike, the source gives them in different places.

How the values were obtained:
PfPFT = biological target: T1, PfPFT (Plasmodium falciparum, UniProt Q8I503+Q8IHP6); assay: PfPFT inhibition, scintillation proximity assay with partially purified PfPFT; format: biochemical; conditions: for Selectivity: ratio of rat to Plasmodium PFT activity; for inhibition at 0.005 µM: read-out: % Inhibition of PfPFT at 5 nM, inhibitor at 5 nM; for inhibition at 0.05 µM: read-out: % Inhibition of PfPFT at 50 nM, inhibitor at 50 nM
T1 sequence (Q8I503 1-521): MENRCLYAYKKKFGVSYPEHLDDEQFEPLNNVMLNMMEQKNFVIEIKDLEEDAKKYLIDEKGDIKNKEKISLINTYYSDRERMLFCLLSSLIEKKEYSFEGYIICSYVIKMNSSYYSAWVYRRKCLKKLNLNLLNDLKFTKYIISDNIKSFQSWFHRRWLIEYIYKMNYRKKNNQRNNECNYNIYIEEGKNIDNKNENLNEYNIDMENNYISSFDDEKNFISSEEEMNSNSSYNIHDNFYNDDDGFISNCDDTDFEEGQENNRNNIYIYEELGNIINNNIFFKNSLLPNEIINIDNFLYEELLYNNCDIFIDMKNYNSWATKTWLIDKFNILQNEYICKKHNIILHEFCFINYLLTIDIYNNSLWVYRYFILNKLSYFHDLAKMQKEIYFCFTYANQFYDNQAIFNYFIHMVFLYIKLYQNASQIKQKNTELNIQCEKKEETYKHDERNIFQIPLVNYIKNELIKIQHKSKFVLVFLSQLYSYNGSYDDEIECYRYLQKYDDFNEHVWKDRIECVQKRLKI
T1 sequence (Q8IHP6 1-923): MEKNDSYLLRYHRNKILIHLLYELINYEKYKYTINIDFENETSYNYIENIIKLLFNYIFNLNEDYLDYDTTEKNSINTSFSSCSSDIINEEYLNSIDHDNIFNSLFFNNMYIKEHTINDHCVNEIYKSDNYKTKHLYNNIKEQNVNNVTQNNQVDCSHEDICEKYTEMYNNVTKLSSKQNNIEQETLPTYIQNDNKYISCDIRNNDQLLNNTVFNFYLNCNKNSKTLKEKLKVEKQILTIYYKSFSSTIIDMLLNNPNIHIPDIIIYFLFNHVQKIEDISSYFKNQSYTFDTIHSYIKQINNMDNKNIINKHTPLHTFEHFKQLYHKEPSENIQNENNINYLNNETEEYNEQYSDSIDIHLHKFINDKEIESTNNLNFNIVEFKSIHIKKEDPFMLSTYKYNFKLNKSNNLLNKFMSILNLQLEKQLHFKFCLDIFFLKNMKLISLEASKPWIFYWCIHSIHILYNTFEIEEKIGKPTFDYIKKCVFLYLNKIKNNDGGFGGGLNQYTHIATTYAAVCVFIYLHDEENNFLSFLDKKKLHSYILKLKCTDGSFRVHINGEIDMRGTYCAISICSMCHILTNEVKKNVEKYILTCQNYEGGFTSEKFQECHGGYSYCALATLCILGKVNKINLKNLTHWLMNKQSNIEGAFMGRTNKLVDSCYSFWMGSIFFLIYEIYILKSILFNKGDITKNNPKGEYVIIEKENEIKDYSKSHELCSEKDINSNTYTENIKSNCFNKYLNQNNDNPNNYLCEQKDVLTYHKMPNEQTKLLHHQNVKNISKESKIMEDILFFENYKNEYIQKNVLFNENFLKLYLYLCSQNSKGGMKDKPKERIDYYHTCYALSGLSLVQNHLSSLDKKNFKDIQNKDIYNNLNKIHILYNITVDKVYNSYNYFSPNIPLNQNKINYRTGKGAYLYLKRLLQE

Rat FTase = Rat FTase (Rattus norvegicus, UniProt Q02293+Q04631); assay: Rat farnesyltransferase IC50 determination; format: biochemical; conditions: concentration decreasing transferase activity twofold
P. falciparum 3D7 = assay: P. falciparum ED50 determination, [3H]-hypoxanthine incorporation, strain 3D7; format: cell-based, Plasmodium falciparum; conditions: Plasmodium falciparum, 3D7, strain 3D7; concentration decreasing hypoxanthine incorporation into parasites twofold; read-out: ED50 3D7
Procedure, shortened: (§1)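 Cultures at 0.5% parasitemia and 0.5% hematocrit, in RPMI with 20% human A+ plasma, were exposed to compound for 48 h at 37° C under 5% CO2/5% O2. [3H]-hypoxanthine was then added for 24 h more. Incorporation, corrected for uninfected erythrocytes and normalised to DMSO wells, gave ED50 by linear regression.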

P. falciparum K1 = assay: P. falciparum ED50 determination, [3H]-hypoxanthine incorporation, strain K1; format: cell-based, Plasmodium falciparum; conditions: concentration decreasing hypoxanthine incorporation into parasites twofold, read-out: ED50 K1
Procedure, shortened: as §1

Caco-2 cells = assay: Caco-2 apparent permeability; conditions: apparent permeability coefficient
Text: Absorption. Caco-2 cells cultured on a semi-permeable membrane form a highly functionalized epithelial barrier, with remarkable similarity to small intestinal epithelial cells, including high levels of brush border hydrolases and well developed junctional complexes.

[1] = Liver microsome metabolism (rat); conditions: female, microsomes
Experimental: (§2) Microsome metabolism. Liver microsome metabolism assays were performed with female pooled microsomes from BD Biosciences (20 mg/mL). Reaction wells containing: phosphate buffer (232 μL, 0.6 M), MgCl2 (12.0 μL, 0.1 M), EDTA (0.8 μL, 0.5 M), 10x NADPH regenerating system (40.0 μL), Glucoide-6-phosphate deghydrogenase (0.8 μL, 500 U/mL), milliq water (267.8 μL), and liver microsomes (10.0 μL, 20 mg/mL) were heated at 37° C. for 10 mins. To each reaction well was added inhibitor (200 μM, 2.0 μL) in DMSO. Reaction vessels were quenched with acetonitrile (75 μL) and internal standard at designated time points, and the sample immediately frozen (−20° C.). Metabolites and unreacted inhibitor were quantified by mass spectral analysis.

[2] = Liver microsome metabolism (mouse); conditions: female
Experimental: as §2

[3] = Oral availability in mice, inhibitor concentration in plasma; format: in vivo
[4] = Oral availability in rats, inhibitor concentration in plasma; format: in vivo; conditions: rat, plasma
[5] = Plasmodium falciparum, K1, strain K1

In the case of `Cn1cnc(S(=O)(=O)N(CCN(Cc2cncn2C)c2ccc(C#N)cc2)CC2CCCCC2)c1` [Compound 8q, 1-Methyl-1H-imidazole-4-sulfonic acid {2-[(4-cyano-phenyl)-(3-methyl-3H-imidazol-4-ylmethyl)-amino]-ethyl}-cyclohexylmethyl-amide], the Selectivity (PfPFT) is reported as 1.7, the inhibition at 0.005 µM (PfPFT) is reported as 63% and the inhibition at 0.05 µM (PfPFT) is reported as 93%. It also gave an IC50 (Rat FTase) of 7.5 nM, an EC50 (P. falciparum 3D7) of 220 nM and an EC50 (P. falciparum K1; [5]) of 850 nM. For the same compound, the CaCo (Caco-2 cells) was 1.5 cm · s^−1 × 10^−6, the half-life at 0.71 µM [1] was 4 min and the half-life at 0.71 µM ([2]; microsomes) was less than 5 min.

Work on `Cn1cnc(S(=O)(=O)N(CCN(Cc2cncn2C)c2ccc(C#N)cc2)Cc2ccc(-c3ccccc3)cc2)c1` [Compound 8ag, 1-Methyl-1H-imidazole-4-sulfonic acid biphenyl-4-ylmethyl-{2-[(4-cyano-phenyl)-(3-methyl-3H-imidazol-4-ylmethyl)-amino]-ethyl}-amide] yielded a Selectivity (PfPFT) of 3.7, an inhibition at 0.005 µM (PfPFT) of 10% and an inhibition at 0.05 µM (PfPFT) of 19%. For the same compound, the IC50 (Rat FTase) was 880 nM, the EC50 (P. falciparum 3D7) was 700 nM and the EC50 (P. falciparum K1; [5]) was 2500 nM. It also gave a half-life at 0.71 µM ([2]; liver microsomes, Microsome t1/2, Mouse, mouse liver microsomes) of less than 4 min.

For `Cn1cnc(S(=O)(=O)N(CCN(Cc2cncn2C)c2ccc(C#N)cc2)Cc2ccccc2)c1` [Compound 8d, 1-Methyl-1H-imidazole-4-sulfonic acid benzyl-{2-[(4-cyano-phenyl)-(3-methyl-3H-imidazol-4-ylmethyl)-amino]-ethyl}-amide], the inhibition at 0.005 µM (PfPFT) was 86%, the inhibition at 0.05 µM (PfPFT) was 98% and the IC50 (Rat FTase) was 25 nM. The EC50 (P. falciparum 3D7) was 349 nM, the EC50 (P. falciparum K1; [5]) was 375 nM and the EC50 (P. falciparum K1; strain K1) was 367 nM. The “Oral Availability in Mice AUC” value ([3]; mouse, in vivo, po, 1 mg) was 112.0 µM·min, the “Oral Availability in Mice t1/2” value ([3]; oral gavage, mice 1 mg, elimination half life) was 95.9 min and the half-life ([4]; 12.5 mg, oral gavage, rats, elimination half life, read-out: Oral Availability t1/2 (rats)) was 96 min. For the same compound, the Tmax ([4]; oral administration to rats 12.5 mg) was 30 min, the Cmax ([4]; oral gavage, rats 12.5 mg in 90% saline, 3% ethanol, 7% tween) was 740 nM and the half-life at 0.71 µM [1] was 18 min. The half-life at 0.71 µM ([2]; microsomes) was 9 min.
